Measurements: US6825178B1, “Methods and products for treating pseudomonas infection” (The Brigham and Women's Hospital, Inc., priority 1996, dated 2004)
Marks after values point to notes of the source that are not given here.

Tested on: transformed human airway epithelial cells (CFT1-LCFSN line)
Assay: Inhibition of internalization of P. aeruginosa strain PAO1 into CFT1-LCFSN cells (bacterial ingestion assay)
Type: cell-based
Conditions: for mean cfu P. aeruginosa internalized (standard deviation): strain PAO1, CFT1-LCFSN cells
From the text: Cell lines. CFT1-LCFSN cells, carrying a retrovirally introduced chromosomal copy of the wild-type human CFTR gene were kindly provided by J. Olsen, J. Yankaskis and L. Johnson from The University of North Carolina, Chapel Hill, N.C.. The cell line parental to CFT1-LCFSN is designated CFT1; it is a line of human papilloma virus 18 E6/E7 transformed bronchial epithelial cells derived from a CF patient homozygous for ΔF508 CFTR. The CFT1-LCFSN cells have normal chloride ion conductance. CFT1-ΔF508 cells are derived from CFT1 cells and carry a cDNA introduced by a retrovirus vector that encodes the ΔF508 mutant form of CFTR. Cells were grown in supplemented F-12 medium as described in 5% CO2 at 37° C.
Bacterial strains. P. aeruginosa strains used include PAO1, a well-characterized laboratory strain, and strains 149 and 324, non-mucoid, LPS-smooth clinical isolates of P. aeruginosa from CF patients early in the course of infection. Fresh cultures of P. aeruginosa grown overnight at 37° C. on a tryptic soy agar plate were suspended in supplemented medium to prepare the bacterial inoculum. Approximately 10^6 cfu of the bacterial inoculum were added per well of 10^5, epithelial cells.
Reagents for inhibition of ingestion assays. Membranes were prepared from C127 cells as described by O'Riordan et al.. Membranes were suspended in 150 mM NaCl, 50 mM Tris, pH 7.5 and 1 mM EDTA and added at the indicated concentration to suspensions of P. aeruginosa strains prior to adding this mixture to CFT1-LCFSN cells to measure bacterial uptake. Membranes from CEM/VbI cells expressing P-glycoprotein and membranes from control CEM cells lacking P-glycoprotein were obtained from James Croop of Harvard Medical School. Purified (˜85%) recombinant CFTR was obtained from Genzyme Corp., and prepared as described. The protein was solubilized in 100 mM NaCl, 10 mM Tris, pH 8.0, 2 mM di-thio-threitol and 0.1% sodium dodecyl sulfate. Monoclonal antibodies raised to synthetic peptides corresponding to the first (MAb CF3) and fourth (MAb CF4) predicted extracellular domains of CFTR, as well as a MAb specific to a peptide representing the carboxy-terminal 14 amino acids of mature CFTR (MAb CF2) were provided by Dr. George Banting, University of Bristol, Bristol, UK [12]. Synthetic peptides were obtained from Chiron Mimetopes, San Diego, Calif. Peptide […] (15 amino acids) (SEQ.ID.NO. 3) represents amino acids 103-117 of mature CFTR, peptide […] (31 amino acids) (SEQ.ID.NO. 4) represents amino acids 881-911 of mature CFTR. Peptides were made up as a stock solution in F-12 medium containing 1 μM/μl based on the purity reported by the manufacturer. Peptides were diluted in F-12 tissue culture medium prior to use in assays.
Bacterial ingestion assay. Cells were released from monolayers in tissue culture flasks by 5 min. of incubation with trypsin-versene mixture (BioWhitaker, Walkersville, Md.), washed, counted and seeded into 96-well tissue culture plates at 10^5 cells/well in supplemented F-12 medium and incubated at 37° C. in 5% CO2. Fresh cultures of P. aeruginosa grown overnight at 37° C. on a tryptic soy agar plate were suspended in supplemented F-12 medium to prepare the bacterial inoculum. Then 10^6 colony forming units (cfu) of the bacterial inoculum were added per well of 10^5 epithelial cells. Bacteria were allowed to invade the epithelial cells for 3 to 4 hours at 37° C., after which nonadherent bacteria were removed by washing. The remaining steps of the assay and the steps involved in the controls have previously been described. Three to 9 replicates were obtained per point, and analyzed using analysis of variance (ANOVA) and the Fisher PLSD statistic to determine pairwise differences. […]

CFTR: purified (~85%) recombinant CFTR obtained from Genzyme Corp.
inhibition of bacterial ingestion (in words) (CFT1-LCFSN cells, nanogram quantities of CFTR): significant inhibition of bacterial ingestion | mean cfu P. aeruginosa internalized (standard deviation) (9.7 μg protein/ml): 1.05 × 10^5 (2.5 × 10^4) cfu | mean cfu P. aeruginosa internalized (standard deviation) (78 μg protein/ml): 8.55 × 10^4 (1.15 × 10^4) cfu | mean cfu P. aeruginosa internalized (standard deviation) (625 μg protein/ml): 4.9 × 10^4 (1.25 × 10^4)^a cfu | mean cfu P. aeruginosa internalized (standard deviation) (5000 μg protein/ml): 1.65 × 10^4 (1.05 × 10^4)^a cfu
